Test results as given in patent publication US10781184B2, “Substituted benzazinones as antibacterial compounds” (GlaxoSmithKline Intellectual Property Development Limited, priority 2015, dated 2020).
Converted amounts (≈) assume the structure as drawn.

Experiments:
K. pneumoniae 1161486 = test: Minimum Inhibitory Concentration Assay (broth microdilution, CLSI); assay type: cell-based; settings: Klebsiella pneumoniae; strain 1161486, broth microdilution; read-out: K. pneumoniae 1161486 MIC
In short: (§1)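 CLSI broth microdilution for aerobic bacteria; compounds serially diluted in the recommended broth over a final range of 0.125–128 mcg/mL, final DMSO below 1%. MIC read as the lowest concentration inhibiting visible growth.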

P. aeruginosa PA01 = test: as above; assay type: cell-based; settings: Pseudomonas aeruginosa; strain PA01, broth microdilution; read-out: P. aeruginosa PA01 MIC
In short: as §1

E. coli 7623 = test: as above; assay type: cell-based; settings: Escherichia coli; strain 7623, broth microdilution; read-out: E. coli 7623 MIC
In short: as §1

[1] = target: T1, Untagged Pseudomonas LpxC (Pseudomonas aeruginosa, UniProt P47205); test: P. aeruginosa Enzymatic Assay (LpxC deacetylase, RapidFire MS); assay type: biochemical
T1 construct: made in house; host or cells: E. coli
T1 sequence (P47205 1-303): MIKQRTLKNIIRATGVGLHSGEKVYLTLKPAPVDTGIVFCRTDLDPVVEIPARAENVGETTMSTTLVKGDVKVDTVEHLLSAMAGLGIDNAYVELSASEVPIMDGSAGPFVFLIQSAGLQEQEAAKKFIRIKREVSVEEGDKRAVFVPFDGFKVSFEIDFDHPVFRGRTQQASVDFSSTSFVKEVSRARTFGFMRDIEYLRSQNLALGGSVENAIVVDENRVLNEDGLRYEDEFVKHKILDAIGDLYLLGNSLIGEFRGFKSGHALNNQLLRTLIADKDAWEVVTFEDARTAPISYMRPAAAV
Text: P. aeruginosa Enzymatic Assay
Untagged Pseudomonas LpxC was expressed in E. coli from Psuedomonas aeruginosa PAO1 and purified from Q-Sepharose 1 and Q-Sepharose 2 columns. UDP-3-O—(R-3-hydroxymyristoyl)-N-Acetylglucosamine Substrate was obtained through a custom synthesis from Alberta Innovates Technology Futures.
Untagged Pseudomonas LpxC is a deacetylase, which can remove an acetyl-group from UDP-3-O—(R-3-hydroxymyristoyl)-N-Acetylglucosamine to result in a product that is 42 Daltons less than the original acetylated substrate. Direct detection of the deactylated product and acetylated substrate is accomplished through an Agilent RapidFire v. 3.4/Sciex 4000 Q-Trap RF-MS instrument.
Following a 30 minute incubation, 20 μL of 2× substrate [7.680 buffer+5 uL of UDP-3-O—(R-3-hydroxymyristoyl)-N-Acetylglucosamine (at 10 mM Stock)] was added and incubated for 25 minutes. 10 uL of 1N HCl was added to quench the reaction. The plate was loaded onto the Agilent RapidFire v. 3.4/Sciex 4000 Q-Trap RF-MS instrument for analysis, using a C4 SPE cartridge and 2 mM ammonium acetate in 100 v/v water as the aqueous eluent and 5 mM ammonium acetate in […] as the organic eluent. For dose response experiments, % conversion were determined from the substrate and product analytes and normalized data were fit by ABASE/XC50 using the equation y=a+(b−a)/(1+(10^x/10^c)^d), where a is the minimum % activity, b is the maximum % activity, c is the pIC50, and d is the Hill slope. ^1Langsdorf, Erik F. et al. Screening for Antibacterial Inhibitors of the UDP-3-O—(R-3-Hydroxymyristoyl)-N-Acetylglucosamine Deacetylase (LpxC) Using a High-Throughput Mass

Row | MIC (K. pneumoniae 1161486) | MIC (P. aeruginosa PA01) | MIC (E. coli 7623) | IC50 [1] | Structure (SMILES)
1 | 0.063 µg/mL (≈ 0.13 µM) | 0.25 µg/mL (≈ 0.517 µM) | 0.06 µg/mL (≈ 0.124 µM) | 1 nM | C[C@@](CCn1ccc2cc(-c3ccc(CNC4CC4)cc3)ccc2c1=O)(C(=O)NO)S(C)(=O)=O [Example 75, (2R)-4-(6-{4-[(cyclopropylamino)methyl]phenyl}-1-oxo-1,2-dihydroisoquinolin-2-yl)-N-hydroxy-2-methanesulfonyl-2-methylbutanamide]
2 | 0.5 µg/mL (≈ 1.15 µM) | 4 µg/mL (≈ 9.21 µM) | 0.5 µg/mL (≈ 1.15 µM) | 1 nM | C[C@@](CCN1CCc2cc(-c3ccccc3F)ccc2C1=O)(C(=O)NO)S(C)(=O)=O [Example 91, (2R)-4-[6-(2-fluorophenyl)-1-oxo-1,2,3,4-tetrahydroisoquinolin-2-yl]-N-hydroxy-2-methanesulfonyl-2-methylbutanamide]
3 | 1 µg/mL (≈ 2.23 µM) | 16 µg/mL (≈ 35.8 µM) | 0.25 µg/mL (≈ 0.559 µM) | 1 nM | Cc1ccc(-c2cc(F)c3c(=O)n(CC[C@](C)(C(=O)NO)S(C)(=O)=O)cnc3c2)cc1 [Example 17, (2R)-4-[5-fluoro-7-(4-methylphenyl)-4-oxo-3,4-dihydroquinazolin-3-yl]-N-hydroxy-2-methanesulfonyl-2-methylbutanamide]
